Laboratory results from patent publication EP1247803A2, “Indolinone compounds suitable for modulation of protein kinases” (Sugen, Inc., priority 1996, dated 1998).

Tests used:
MET = MET biochemical kinase assay; set-up: species or system human; concentration or dose not given beside the values
Summary of the method: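 Plates coated with anti-rabbit Fc bind a rabbit anti-MET antibody that captures receptor from cell lysates; unbound protein is washed off before compound and ATP-containing kinase buffer go in.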

EGFR = biological target: T1, EGFR (Homo sapiens, UniProt P00533); assay: EGFR ELISA assay (in vitro kinase activity, EGFR captured from A431 cell lysate); assay type: biochemical; set-up: concentration or dose not given beside the values
T1 construct: Add 7 ug A431 cell lysate per well (EGFR source); endogenous in cells; host or cells: A431
Summary of the method: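 EGFR from A431 lysate was captured on anti-EGFR antibody-coated plates and preincubated with compounds for 30 min. Autophosphorylation ran 5 min with 3 uM ATP and 5 mM MnCl2 (final), stopped with 20 mM EDTA. Phosphotyrosine was detected by anti-pTyr ELISA with ABTS/H2O2, read at 410 nm.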

T1 sequence (P00533 25-1210): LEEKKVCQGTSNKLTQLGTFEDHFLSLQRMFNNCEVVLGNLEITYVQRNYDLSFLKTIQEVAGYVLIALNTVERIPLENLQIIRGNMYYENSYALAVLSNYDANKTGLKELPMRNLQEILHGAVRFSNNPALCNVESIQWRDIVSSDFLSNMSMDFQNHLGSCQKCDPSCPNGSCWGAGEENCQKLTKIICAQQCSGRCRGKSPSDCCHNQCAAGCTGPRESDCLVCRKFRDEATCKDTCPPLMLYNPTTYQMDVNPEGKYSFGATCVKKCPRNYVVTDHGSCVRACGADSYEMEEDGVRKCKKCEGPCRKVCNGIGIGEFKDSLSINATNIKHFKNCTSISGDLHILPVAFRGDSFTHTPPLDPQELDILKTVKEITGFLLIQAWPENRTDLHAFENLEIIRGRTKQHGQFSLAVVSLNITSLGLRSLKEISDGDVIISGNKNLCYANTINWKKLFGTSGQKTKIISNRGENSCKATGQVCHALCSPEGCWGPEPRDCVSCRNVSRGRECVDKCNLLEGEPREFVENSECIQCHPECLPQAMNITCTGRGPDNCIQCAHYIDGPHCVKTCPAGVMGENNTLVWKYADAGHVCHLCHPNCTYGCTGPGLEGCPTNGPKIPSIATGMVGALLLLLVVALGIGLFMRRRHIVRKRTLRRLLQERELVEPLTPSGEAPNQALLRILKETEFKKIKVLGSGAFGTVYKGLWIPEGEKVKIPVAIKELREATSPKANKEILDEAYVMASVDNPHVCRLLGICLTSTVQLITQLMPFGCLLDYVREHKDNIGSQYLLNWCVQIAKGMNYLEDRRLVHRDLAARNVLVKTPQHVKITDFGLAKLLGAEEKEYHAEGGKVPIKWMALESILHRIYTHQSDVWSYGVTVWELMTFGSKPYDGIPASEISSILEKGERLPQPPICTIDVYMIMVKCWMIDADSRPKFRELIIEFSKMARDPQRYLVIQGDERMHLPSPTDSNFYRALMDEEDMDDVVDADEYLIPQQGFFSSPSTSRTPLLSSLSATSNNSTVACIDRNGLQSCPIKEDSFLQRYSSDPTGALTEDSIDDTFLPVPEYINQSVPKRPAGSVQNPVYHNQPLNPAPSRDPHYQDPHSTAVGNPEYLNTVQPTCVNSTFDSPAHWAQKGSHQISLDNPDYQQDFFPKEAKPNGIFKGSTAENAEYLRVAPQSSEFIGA

Row | SMILES | Met Kinase % Inhibition (MET) [%] | Biochem EGFR %Inhibition (EGFR) [%]
1 | COc1ccc(C=C2C(=O)Nc3c(Br)cc(Br)cc32)cc1 [10726/A11] | 70.8 | 6.2
2 | Cc1c(Br)ccc2c1C(=Cc1ccc(N3CCOCC3)cc1)C(=O)N2 [10725/C08] | 28.0 | -11.9
3 | Cc1ccc(C=C2C(=O)Nc3ccc(S(=O)(=O)Nc4ccc(C(F)(F)F)cc4)cc32)o1 [10725/E04] | 59.0 | 31.2
4 | Cc1cn(C)cc1C=C1C(=O)Nc2ccc(I)cc21 [10726/B06] | 76.1 | 6.6
5 | COc1ccc(Br)c(C=C2C(=O)Nc3ccc(Br)c(C)c32)c1O [10725/C03] | 72.9 | -12.7
6 | O=C1Nc2ccc(CCCl)cc2C1=Cc1c[nH]cn1 [10725/G11] | 25.7 | -32.4
7 | CNS(=O)(=O)c1ccc2c(c1)C(=Cc1c(Br)ccc(OC)c1O)C(=O)N2 [10725/D03] | 72.9 | -2.5
8 | Cc1cc(C=C2C(=O)Nc3ccc(CCCl)cc32)[nH]n1 [10725/G05] | 15.6 | 68.7
9 | COc1ccc(Br)c(C=C2C(=O)Nc3ccc(S(=O)(=O)Nc4ccc(C(F)(F)F)cc4)cc32)c1O [10725/E03] | 60.9 | -10.3
10 | O=C1Nc2ccc(S(=O)(=O)Nc3ccc(C(F)(F)F)cc3)cc2C1=Cc1c[nH]cn1 [10725/E11] | 9.6 | -36.0
11 | CCOC(=O)c1[nH]c(C=C2C(=O)Nc3ccc(I)cc32)c(C(=O)OC)c1C [10726/B03] | 81.1 | 3.5
12 | Cc1ccc(C=C2C(=O)Nc3ccc(Br)c(C)c32)o1 [10725/C04] | 75.9 | 31.8
13 | O=C1Nc2ccc(S(=O)(=O)N3CCOCC3)cc2C1=Cc1ccc[nH]1 [10717/F09] | 41.4 | 1.8
14 | COc1cc(C)cc(O)c1C=C1C(=O)Nc2ccc(S(=O)(=O)Nc3ccc(C(F)(F)F)cc3)cc21 [10725/E06] | 36.7 | -17.7
15 | O=C1Nc2ccc(S(=O)(=O)N3CCOCC3)cc2C1=Cc1c(Br)cnn1-c1ccc(Cl)cc1 [10725/F10] | 14.2 | 3.7
16 | O=C1Nc2ccc(CCCl)cc2C1=Cc1cccs1 [10717/G03] | 4.5 | 18.8
17 | Cc1cc(C=C2C(=O)Nc3ccc(I)cc32)cc(C(C)(C)C)c1O [10726/B04] | 78.9 | 71.1
18 | O=C1Nc2ccc(CCCl)cc2C1=Cc1ccc(N2CCOCC2)cc1 [10725/G08] | 47.3 | -13.7
19 | CCOC(=O)c1[nH]c(C=C2C(=O)Nc3c(Br)cc(Br)cc32)c(C(=O)OC)c1C [10726/A03] | 70.1 | -12.5
20 | Cc1ccc(C=C2C(=O)Nc3ccc(S(=O)(=O)N4CCOCC4)cc32)s1 [10717/F07] | 37.6 | -14.3
21 | COc1cc(C)cc(O)c1C=C1C(=O)Nc2ccc(CCCl)cc21 [10725/G06] | 35.8 | -19.9
